Experimental data: ChEMBL document CHEMBL3885881, “DrugMatrix”

Species on record: Rattus norvegicus
Type: toxicity, organism-based, Sprague-Dawley
Details: in vivo, po, 24 h, route oral GAVAGE, time 1 day, […]; for ABSOLUTE BASOPHIL / ABSOLUTE EOSINOPHIL / ABSOLUTE LYMPHOCYTE / ABSOLUTE MONOCYTE / BASOPHIL / EOSINOPHIL / ERYTHROCYTE COUNT / HEMATOCRIT / HEMOGLOBIN / LEUKOCYTE COUNT / LYMPHOCYTE / MEAN CORPUSCULAR HEMOGLOBIN / MEAN CORPUSCULAR HEMOGLOBIN CONCENTRATION / MEAN CORPUSCULAR VOLUME / MONOCYTE / NEUTROPHIL / PLATELET COUNT: tissue Blood; for ALANINE AMINOTRANSFERASE / ALBUMIN / ALKALINE PHOSPHATASE / ASPARTATE AMINOTRANSFERASE / BLOOD UREA NITROGEN / CARBON DIOXIDE / CHLORIDE / CHOLESTEROL / CREATINE PHOSPHOKINASE / CREATININE / GLUCOSE / LACTATE DEHYDROGENASE / LIPASE / PHOSPHORUS / POTASSIUM / SODIUM / TOTAL BILIRUBIN / TOTAL PROTEIN / URIC ACID: tissue Plasma
[1] = 0 mg/kg, vehicle control, dose level Control

Description: DrugMatrix - Regimen: Single

`C=CCN` [ALLYLAMINE] was tested, and the ABSOLUTE BASOPHIL [1] was 46.7 cells/µL, the ABSOLUTE EOSINOPHIL [1] was 130 cells/µL and the ABSOLUTE LYMPHOCYTE [1] was 8720 cells/µL. For the same compound, the ABSOLUTE MONOCYTE [1] was 140 cells/µL, the BASOPHIL [1] was 0.43% and the EOSINOPHIL [1] was 1.33%. The “ERYTHROCYTE COUNT” value [1] was 6.45 x10E6/uL, the HEMATOCRIT [1] was 42.2% and the HEMOGLOBIN [1] was 13.33 G/DL. For the same compound, the “LEUKOCYTE COUNT” value [1] was 10.59 x10E3/uL, the LYMPHOCYTE [1] was 82.13% and the “MEAN CORPUSCULAR HEMOGLOBIN” value [1] was 20.67 pg. The “MEAN CORPUSCULAR HEMOGLOBIN CONCENTRATION” value [1] was 31.6 G/DL, the “MEAN CORPUSCULAR VOLUME” value [1] was 65.4 fL and the MONOCYTE [1] was 1.37%. For the same compound, the NEUTROPHIL [1] was 14.3%, the “PLATELET COUNT” value [1] was 1048.67 x10E3/uL and the “ALANINE AMINOTRANSFERASE” value [1] was 44 u/L. The ALBUMIN [1] was 3.93 G/DL, the “ALKALINE PHOSPHATASE” value [1] was 551.33 u/L and the “ASPARTATE AMINOTRANSFERASE” value [1] was 97 u/L. For the same compound, the “BLOOD UREA NITROGEN” value [1] was 13.5 mg/dL, the “CARBON DIOXIDE” value [1] was 37.33 mmol/L and the CHLORIDE [1] was 102.33 MEQ/L. For the same compound, the CHOLESTEROL [1] was 83 mg/dL, the “CREATINE PHOSPHOKINASE” value [1] was 365.33 u/L and the CREATININE [1] was 0.4 mg/dL. The GLUCOSE [1] was 189 mg/dL, the “LACTATE DEHYDROGENASE” value [1] was 170.33 u/L and the LIPASE [1] was 10.67 u/L. For the same compound, the PHOSPHORUS [1] was 11.53 mg/dL, the POTASSIUM [1] was 5.63 MEQ/L and the SODIUM [1] was 144.33 MEQ/L. For the same compound, the “TOTAL BILIRUBIN” value [1] was 0.4 mg/dL, the “TOTAL PROTEIN” value [1] was 6.27 G/DL and the “URIC ACID” value [1] was 0.87 mg/dL. For the same compound, the ABSOLUTE BASOPHIL (40 mg/kg, dose level Low) was 26.7 cells/µL, the ABSOLUTE EOSINOPHIL (40 mg/kg, dose level Low) was 160 cells/µL and the ABSOLUTE LYMPHOCYTE (40 mg/kg, dose level Low) was 6420 cells/µL. It also gave an ABSOLUTE MONOCYTE (40 mg/kg, dose level Low) of 190 cells/µL, a BASOPHIL (40 mg/kg, dose level Low) of 0.3% and an EOSINOPHIL (40 mg/kg, dose level Low) of 1.9%. The “ERYTHROCYTE COUNT” value (40 mg/kg, dose level Low) was 7.01 x10E6/uL, the HEMATOCRIT (40 mg/kg, dose level Low) was 45.2% and the HEMOGLOBIN (40 mg/kg, dose level Low) was 14.3 G/DL. The “LEUKOCYTE COUNT” value (40 mg/kg, dose level Low) was 8.6 x10E3/uL, the LYMPHOCYTE (40 mg/kg, dose level Low) was 74.17% and the “MEAN CORPUSCULAR HEMOGLOBIN” value (40 mg/kg, dose level Low) was 20.43 pg. For the same compound, the “MEAN CORPUSCULAR HEMOGLOBIN CONCENTRATION” value (40 mg/kg, dose level Low) was 31.67 G/DL, the “MEAN CORPUSCULAR VOLUME” value (40 mg/kg, dose level Low) was 64.6 fL and the MONOCYTE (40 mg/kg, dose level Low) was 2.23%. The NEUTROPHIL (40 mg/kg, dose level Low) was 20.97%, the “PLATELET COUNT” value (40 mg/kg, dose level Low) was 1314 x10E3/uL and the “ALANINE AMINOTRANSFERASE” value (40 mg/kg, dose level Low) was 38 u/L. For the same compound, the ALBUMIN (40 mg/kg, dose level Low) was 3.9 G/DL, the “ALKALINE PHOSPHATASE” value (40 mg/kg, dose level Low) was 499 u/L and the “ASPARTATE AMINOTRANSFERASE” value (40 mg/kg, dose level Low) was 72.33 u/L. For the same compound, the “BLOOD UREA NITROGEN” value (40 mg/kg, dose level Low) was 10 mg/dL, the “CARBON DIOXIDE” value (40 mg/kg, dose level Low) was 38.67 mmol/L and the CHLORIDE (40 mg/kg, dose level Low) was 104 MEQ/L. The CHOLESTEROL (40 mg/kg, dose level Low) was 72.67 mg/dL, the “CREATINE PHOSPHOKINASE” value (40 mg/kg, dose level Low) was 242.67 u/L and the CREATININE (40 mg/kg, dose level Low) was 0.47 mg/dL. The GLUCOSE (40 mg/kg, dose level Low) was 171.33 mg/dL, the “LACTATE DEHYDROGENASE” value (40 mg/kg, dose level Low) was 92.33 u/L and the LIPASE (40 mg/kg, dose level Low) was 15.33 u/L. It also gave a PHOSPHORUS (40 mg/kg, dose level Low) of 11.83 mg/dL, a POTASSIUM (40 mg/kg, dose level Low) of 5.73 MEQ/L and an SODIUM (40 mg/kg, dose level Low) of 145 MEQ/L. The “TOTAL BILIRUBIN” value (40 mg/kg, dose level Low) was 0.3 mg/dL, the “TOTAL PROTEIN” value (40 mg/kg, dose level Low) was 6.27 G/DL and the “URIC ACID” value (40 mg/kg, dose level Low) was 1.3 mg/dL.
